Experimental data reported in US20240270701A1, “BETA ADRENERGIC AGONIST AND METHODS OF USING THE SAME” (Curasen Therapeutics, Inc., priority 2021, published 2024).
Like-named read-outs stand apart in the source and are kept apart here.

Key:
[1] = molecular target: T1, B1-AR (Homo sapiens, UniProt P08588); test: cAMP Gs dynamic HTRF assay, cells expressing beta-adrenergic receptor (CHO-K1), B1-AR; format: cell-based; settings: for EC50: cAMP HTRF, read-out: pEC50 [B1-AR] (converted); for Emax: relative to full agonist isoproterenol, read-out: Emax (% iso) (%) [B1-AR]
T1 construct: expressed in transfected cells; host or cells: CHO-K1
Method: (§1) cAMP homogeneous time-resolved fluorescence (HTRF): experimental methods. Compound efficacy is determined using the cAMP Gs dynamic HTRF assay (Cisbio, catalog #62AM4PEC) largely following the manufacturer's instructions, also detailed below.
(§2) Standard serial dilution curves are 10-point, 5-fold dilutions starting from a highest concentration of 10 μM. Controls present on every assay plate are 0.1% DMSO (vehicle control), 1 μM isoproterenol (full beta-adrenergic agonist control) and […] xamoterol (partial beta-adrenergic agonist control). […] Assay plates are centrifuged at 500×g for 10 seconds. Compounds and IBMX are prepared at 2× final dose to compensate for addition of cells.
(§3) Cell preparation: 1× stimulation buffer, washing PBS (Dulbecco's phosphate-buffered saline, − Mg − Ca; Caisson Labs, catalog #PBL01), assay PBS (Dulbecco's phosphate-buffered saline, + Mg, + Ca; Caisson Labs, catalog #PBL02) and Versene (0.02% EDTA disodium salt solution in PBS without calcium or magnesium; Caisson Labs, catalog #EDL01) are pre-warmed to 37° C. Cells expressing beta-adrenergic receptor were washed in washing PBS to remove growth medium and then released from the surface by incubating with Versene for 5-10 minutes at 37° C. Cells are harvested using assay PBS, counted manually by hemocytometer or by an automated cell counter, pelleted by centrifugation (200×g, 5 minutes) and resuspended in 37° C. 1× stimulation buffer to a final density of 1.5×10^6 cells/mL. 5 μL of the suspended cell solution (7500 cell total) are added to all wells of the 384 well assay plate, the assay plate was covered with an Axygen® plate seal (Corning PCR-SP) and incubated in a humidified 37° C. environment supplemented with 5% CO2 for 30 minutes.
(§4) HTRF reagent addition, reading and data analysis: After 30 minutes of cell stimulation with test compound, the assay plates are centrifuged at 500×g for 10 seconds, and incubation was stopped with the addition of 5 μL cAMP-D2 acceptor, diluted 1:21 in detection and lysis buffer 2 (Cisbio 62CL2FDF) was added to all cells. Subsequently, 5 μL Anti-cAMP-Eu Donor, diluted 1:21 in detection and lysis buffer 2, was added to cells. Plates were sealed and reactions gently ‘vortexed’ at 900 rpm on a Heidolph Titramax 1000 for at least 30 minutes at room temperature. Plates are centrifuged again at 500×g for 10 seconds, and HTRF was measured using a Tecan Spark plate reader at 50 flashes per well. […] Potency estimates (EC50 and pEC50) are derived from the four-parameter nonlinear regression of the concentration-effect curve and an estimate of relative efficacy is determined by comparing the magnitude of the test compound HTRF signal window (min−max dose) with the signal window of the full agonist control, isoproterenol.

[2] = molecular target: T2, B2-AR (Homo sapiens, UniProt P07550); test: cAMP Gs dynamic HTRF assay, cells expressing beta-adrenergic receptor (CHO-K1), B2-AR; format: cell-based; settings: for Emax: relative to full agonist isoproterenol, read-out: Emax (% iso) (%) [B2-AR]; for EC50: cAMP HTRF, read-out: pEC50 [B2-AR] (converted)
T2 construct: expressed in transfected cells; host or cells: CHO-K1
Method: as §1, §2, §3, §4

T2 sequence (P07550 whole entry, species assumed): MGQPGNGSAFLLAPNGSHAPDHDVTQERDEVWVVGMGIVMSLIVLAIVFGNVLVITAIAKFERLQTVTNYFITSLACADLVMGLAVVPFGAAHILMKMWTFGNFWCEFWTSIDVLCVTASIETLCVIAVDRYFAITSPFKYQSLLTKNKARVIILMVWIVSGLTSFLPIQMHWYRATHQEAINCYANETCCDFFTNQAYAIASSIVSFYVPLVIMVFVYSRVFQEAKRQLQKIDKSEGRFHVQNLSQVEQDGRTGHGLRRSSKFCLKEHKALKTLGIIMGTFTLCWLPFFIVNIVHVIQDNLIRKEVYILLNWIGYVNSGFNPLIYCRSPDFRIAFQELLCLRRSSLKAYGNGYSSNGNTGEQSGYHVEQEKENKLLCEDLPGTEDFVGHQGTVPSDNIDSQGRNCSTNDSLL
T1 sequence (P08588 whole entry, species assumed): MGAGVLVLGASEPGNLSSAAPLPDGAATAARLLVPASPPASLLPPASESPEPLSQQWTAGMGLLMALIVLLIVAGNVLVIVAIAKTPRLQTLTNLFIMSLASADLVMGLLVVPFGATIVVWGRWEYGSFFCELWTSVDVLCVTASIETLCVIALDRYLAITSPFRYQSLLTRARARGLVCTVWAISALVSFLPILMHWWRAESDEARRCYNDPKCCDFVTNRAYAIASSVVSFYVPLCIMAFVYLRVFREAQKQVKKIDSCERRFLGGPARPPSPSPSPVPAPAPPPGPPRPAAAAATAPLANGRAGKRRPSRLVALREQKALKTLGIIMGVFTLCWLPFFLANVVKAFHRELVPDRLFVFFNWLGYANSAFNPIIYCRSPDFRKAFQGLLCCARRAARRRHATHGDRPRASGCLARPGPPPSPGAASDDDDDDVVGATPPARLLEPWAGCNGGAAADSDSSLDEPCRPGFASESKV

SMILES	EC50 [1]	Emax [1]	Emax ([2]; CHO-K1, CHO-K1 cells)	EC50 ([2]; CHO-K1 cells)	Emax ([2]; CHO-K1 cells)
CC(C)NC[C@H](O)c1cccc2[nH]cc(F)c12 [I-112]	< 10 nM	> 90%	> 90%	< 10 nM	–
CC1(NC[C@H](O)c2cccc3[nH]ncc23)CCC1 [I-128]	< 10 nM	> 90%	–	< 10 nM	> 90%
CC(C)(C)NC[C@H](O)c1cc(F)cc2[nH]cnc12 [I-131]	10 to 100 nM	> 90%	70 to 90%	10 to 100 nM	–
CC(C)NC[C@H](O)c1ccc(Cl)c2[nH]ncc12 [I-122]	< 10 nM	70 to 90%	70 to 90%	< 10 nM	–
Cc1c(F)cc([C@@H](O)CNC(C)(C)C)c2cn[nH]c12 [I-62]	< 10 nM	70 to 90%	–	< 10 nM	70 to 90%
C[C@@H](NC[C@H](O)c1ccc(F)c2[nH]ncc12)C1CC1 [I-10]	< 10 nM	70 to 90%	> 90%	< 10 nM	–
Cc1ccc2cc([C@@H](O)CNC(C)(C)C)ccc2n1 [I-82]	> 1000 nM	< 50%	–	> 1000 nM	< 50%
CC(C)(CO)NC[C@H](O)c1cncc2[nH]ncc12 [I-162]	> 1000 nM	> 90%	–	100 to 1000 nM	> 90%
CC(C)C(C)(C)NC[C@H](O)c1cccc2[nH]nc(F)c12 [I-25]	< 10 nM	> 90%	–	< 10 nM	> 90%
CC(C)(C)NC[C@H](O)c1cccc2[nH]nc(Cl)c12 [I-114]	< 10 nM	> 90%	> 90%	< 10 nM	–
Cc1cc([C@@H](O)CNC(C)(C)C)c2cn[nH]c2n1 [I-67]	10 to 100 nM	> 90%	> 90%	< 10 nM	–
CCC(C)(C)NC[C@H](O)c1ccc(F)c2[nH]ncc12 [I-50]	< 10 nM	70 to 90%	–	< 10 nM	70 to 90%
CC1(N[C@@H](CO)c2cncc3[nH]ncc23)CC1 [I-149]	> 1000 nM	< 50%	–	> 1000 nM	70 to 90%
CCC(C)(C)NC[C@H](O)c1cc(Cl)c(N)nc1C [I-171]	10 to 100 nM	70 to 90%	> 90%	< 10 nM	–
Cc1nc(N)c(Cl)cc1[C@@H](CO)NC1CC(F)(F)C1 [I-186]	> 1000 nM	< 50%	–	> 1000 nM	< 50%
O[C@@H](CNCC1CC1)c1ccc(F)c2[nH]ncc12 [I-75]	< 10 nM	70 to 90%	> 90%	< 10 nM	–
CC(C)(C)NC[C@H](O)c1cc2cccnc2cc1Cl [I-80]	100 to 1000 nM	70 to 90%	< 50%	10 to 100 nM	–
CCC(C)(C)NC[C@H](O)c1cccc2[nH]nc(Cl)c12 [I-45]	< 10 nM	70 to 90%	70 to 90%	< 10 nM	–
COc1ccc(C[C@@H](C)NC[C@H](O)c2ccc(F)c3[nH]ncc23)cc1 [I-17]	< 10 nM	> 90%	–	< 10 nM	> 90%
Cc1ncccc1[C@@H](O)CNC1(C)CCC1 [I-177]	> 1000 nM	70 to 90%	> 90%	10 to 100 nM	–
CC(C)(C)CNC[C@H](O)c1cccc2c1C(F)(F)C(=O)N2 [I-63]	> 1000 nM	< 50%	–	100 to 1000 nM	> 90%
CC1(NC[C@H](O)c2cc(C#N)cc3[nH]ncc23)CC1 [I-155]	100 to 1000 nM	70 to 90%	> 90%	10 to 100 nM	–
COc1ccc(C[C@@H](C)NC[C@H](O)c2cccc3[nH]nc(F)c23)cc1 [I-18]	< 10 nM	> 90%	–	< 10 nM	> 90%
O[C@@H](CNCC1CC1)c1cccc2[nH]ncc12 [I-76]	< 10 nM	70 to 90%	–	< 10 nM	> 90%

SMILES	EC50 [1]	Emax [1]	Emax ([2]; CHO-K1, CHO-K1 cells)	EC50 ([2]; CHO-K1 cells)	Emax ([2]; CHO-K1 cells)
CC(C)(C)NC[C@H](O)c1cc(F)c(Cl)c2[nH]ncc12 [I-58]	< 10 nM	70 to 90%	70 to 90%	< 10 nM	–
CC(C)(C)NC[C@H](O)c1ccc(OC(F)F)c2[nH]ncc12 [I-102]	100 to 1000 nM	50 to 70%	< 50%	< 10 nM	–
CC(C)(C)NC[C@H](O)c1cccc2[nH]nc(C3CC3)c12 [I-125]	100 to 1000 nM	70 to 90%	–	100 to 1000 nM	70 to 90%
Cc1nc(N)ccc1[C@@H](O)CNC(C)(C)C [I-150]	10 to 100 nM	> 90%	> 90%	< 10 nM	–
O[C@@H](CNC1CC1)c1ccc(Cl)c2[nH]ncc12 [I-121]	< 10 nM	50 to 70%	70 to 90%	< 10 nM	–
CCC(C)(CC)NC[C@H](O)c1cccc2[nH]nc(F)c12 [I-30]	< 10 nM	> 90%	–	< 10 nM	> 90%
Cn1ncc2c([C@@H](O)CNC(C)(C)C)cc(F)cc21 [I-57]	10 to 100 nM	70 to 90%	50 to 70%	< 10 nM	–
Cn1nc(F)c2c([C@@H](O)CNC(C)(C)C)cccc21 [I-55]	< 10 nM	70 to 90%	–	< 10 nM	50 to 70%
COc1ccc(C[C@@H](C)NC[C@H](O)c2cc(F)cc3[nH]ncc23)cc1 [I-15]	< 10 nM	> 90%	–	< 10 nM	> 90%
CCC(C)(C)NC[C@H](O)c1ccc(Cl)c2[nH]ncc12 [I-49]	< 10 nM	70 to 90%	70 to 90%	< 10 nM	–
Cc1nc(N)c(F)cc1[C@@H](CO)NC(C)(C)C [I-179]	> 1000 nM	< 50%	–	> 1000 nM	< 50%
Cc1nc(N)c(Cl)cc1[C@@H](O)CNC1COC1 [I-146]	> 1000 nM	< 50%	–	> 1000 nM	> 90%
CC1(NC[C@H](O)c2cncc3[nH]ncc23)CCC1 [I-156]	100 to 1000 nM	70 to 90%	–	10 to 100 nM	> 90%
CC(C)C(C)(C)NC[C@H](O)c1cccc2[nH]ncc12 [I-29]	10 to 100 nM	> 90%	> 90%	< 10 nM	–
Cn1ccc(CNC[C@H](O)c2ccc(F)c3[nH]ncc23)n1 [I-65]	100 to 1000 nM	50 to 70%	–	100 to 1000 nM	70 to 90%
CCC(C)(CC)NC[C@H](O)c1cc(F)cc2[nH]ncc12 [I-26]	< 10 nM	> 90%	> 90%	< 10 nM	–
CC(C)(C)CNC[C@H](O)c1ccc(Cl)c2[nH]ncc12 [I-68]	10 to 100 nM	70 to 90%	–	< 10 nM	70 to 90%
Cc1nc(N)c(Cl)cc1[C@@H](O)CNC1CC(F)(F)C1 [I-178]	> 1000 nM	50 to 70%	> 90%	100 to 1000 nM	–
CC(C)(C)CNC[C@H](O)c1cc(F)cc2[nH]ncc12 [I-92]	10 to 100 nM	70 to 90%	> 90%	< 10 nM	–
Cc1n[nH]c2cccc([C@@H](O)CNC(C)C)c12 [I-170]	100 to 1000 nM	70 to 90%	–	10 to 100 nM	70 to 90%
CC1(NC[C@H](O)c2cc(C#N)cc3[nH]ncc23)CCC1 [I-157]	100 to 1000 nM	70 to 90%	> 90%	10 to 100 nM	–
CC(C)(C)NC[C@@H](O)c1cccc(Br)n1 [I-143]	100 to 1000 nM	70 to 90%	50 to 70%	> 1000 nM	–
CC1C(=O)Nc2cccc([C@@H](O)CNC(C)(C)C)c21 (stereo partly drawn) [I-91]	> 1000 nM	< 50%	–	> 1000 nM	< 50%
CC(C)(NC[C@H](O)c1cc(F)cc2[nH]ncc12)C1CC1 [I-19]	< 10 nM	> 90%	> 90%	< 10 nM	–
